Reference: ChEMBL document CHEMBL1146810, “Synthesis of a bromotyrosine-derived natural product inhibitor of mycothiol-S-conjugate amidase” (Bioorg Med Chem Lett, 2004)

What was measured:
[1] = Inhibitory activity against AcGI deacetylase was determined
[2] = tested on: Mycobacterium tuberculosis; experiment: Inhibitory activity against mycothiol-S-conjugate amidase (MCA) was determined

## NCCCOc1c(Br)cc(C/C(=N\O)C(=O)NCCCCN=C(N)N)cc1Br
[1]
  Inhibition: 150 µM
[2]
  Inhibition: 30 µM
